In ChEMBL document CHEMBL6177950, “Discovery of potent and selective CDK2 inhibitors with high safety and favorable bioavailability for the treatment of cancer” (Eur J Med Chem, 2025):
pIC50: −log10 of the molar value. Calls of active or inactive are those of the source. The rule behind the calls is not given here.

Columns and labels:
[1] = test system: OVCAR-3; experiment: Upregulation of apoptosis-related signaling pathway gene expression in human OVCAR-3 cells by GSEA; format: functional, cell-based
[2] = Clearance in Sprague-Dawley rat at 2 mg/kg, iv by LC-MS/MS analysis; format: ADME, organism-based; conditions: in vivo
[3] = Acute toxicity in ICR mouse assessed as effect on kidney weight at 1000 to 2500 mg/kg, po administered once for 14 days; format: organism-based; conditions: in vivo, 336 h, dose 1000-2500 mg/kg, time 14 day
[4] = Acute toxicity in ICR mouse assessed as reduction in body weight at 1000 to 2500 mg/kg, po administered once and measured immediately; format: organism-based; conditions: in vivo, dose 1000-2500 mg/kg
[5] = test system: OVCAR-3; experiment: Induction of cell cycle arrest in human OVCAR-3 cells assessed as accumulation of cells at G2 phase at 2 uM incubated for 24 hrs by flow cytometry analysis (reference value: 21.77%); format: functional
[6] = test system: OVCAR-3; experiment: Induction of apoptosis in human OVCAR-3 cells assessed as viable cells at 1 uM incubated for 24 hrs by Annexin V-FITC/PI staining based flow cytometry analysis (reference value: 95.2%); format: functional; conditions: read-out: Activity
[7] = test system: OVCAR-3; experiment: Upregulation of JUN gene expression in human OVCAR-3 cells by GSEA; format: functional, cell-based
[8] = Oral bioavailability in Sprague-Dawley rat at 20 mg/kg by LC-MS/MS analysis; format: ADME, organism-based; conditions: in vivo
[9] = test system: OVCAR-3; experiment: Upregulation of inflammation-related pathway gene expression in human OVCAR-3 cells by GSEA; format: functional, cell-based
[10] = Half life in Sprague-Dawley rat at 20 mg/kg, po by LC-MS/MS analysis; format: ADME, organism-based; conditions: in vivo
[11] = test system: OVCAR-3; experiment: Downregulation of proliferation-related signaling pathway gene expression in human OVCAR-3 cells by GSEA; format: functional, cell-based
[12] = Acute toxicity in ICR mouse assessed as effect on heart weight at 1000 to 2500 mg/kg, po administered once for 14 days; format: organism-based; conditions: in vivo, 336 h, dose 1000-2500 mg/kg, time 14 day
[13] = test system: OVCAR-3; experiment: Upregulation of Bcl2l1gene expression in human OVCAR-3 cells by GSEA; format: functional, cell-based
[14] = Acute toxicity in ICR mouse assessed as pathological changes in spleen at 1000 to 2500 mg/kg, po administered once for 14 days by H and E staining analysis; format: organism-based; conditions: in vivo, 336 h, dose 1000-2500 mg/kg, time 14 day
[15] = test system: OVCAR-3; experiment: Antitumor activity against human OVCAR-3 cells xenografted in nude BALB/c mouse assessed as reduction in tumor cells at 40 to 80 mg/kg, po administered once daily for 21 days by H and E staining analysis; format: functional, organism-based; conditions: dose 40-80 mg/kg, time 21.0 day
[16] = Antiproliferative activity against CCNE1-amplified human OVCAR-3 cells assessed as cell growth inhibition incubated for 3 days by CCK8 assay; format: functional, cell-based; conditions: OVCAR-3, 72 h
[17] = Clearance in Sprague-Dawley rat at 20 mg/kg, po by LC-MS/MS analysis; format: ADME, organism-based; conditions: in vivo
[18] = test system: OVCAR-3; experiment: Induction of apoptosis in human OVCAR-3 cells assessed as viable cells at 2 uM incubated for 24 hrs by Annexin V-FITC/PI staining based flow cytometry analysis (reference value: 95.2%); format: functional; conditions: read-out: Activity
[19] = Acute toxicity in ICR mouse assessed as effect on spleen weight at 1000 to 2500 mg/kg, po administered once for 14 days; format: organism-based; conditions: in vivo, 336 h, dose 1000-2500 mg/kg, time 14 day
[20] = test system: OVCAR-3; experiment: Induction of apoptosis in human OVCAR-3 cells assessed as late apoptotic cells at 2 uM incubated for 24 hrs by Annexin V-FITC/PI staining based flow cytometry analysis (reference value: 2.67%); format: functional
[21] = Acute toxicity in ICR mouse assessed as pathological changes in liver at 1000 to 2500 mg/kg, po administered once for 14 days by H and E staining analysis; format: organism-based; conditions: in vivo, 336 h, dose 1000-2500 mg/kg, time 14 day
[22] = Acute toxicity in ICR mouse assessed as pathological changes in kidney at 1000 to 2500 mg/kg, po administered once for 14 days by H and E staining analysis; format: organism-based; conditions: in vivo, 336 h, dose 1000-2500 mg/kg, time 14 day
[23] = Antiproliferative activity against Palbociclib-resistance human MCF7 cells assessed as cell growth inhibition; format: functional, cell-based, Palbociclib-resistant MCF7 cell
[24] = Tmax in Sprague-Dawley rat at 20 mg/kg, po by LC-MS/MS analysis; format: ADME, organism-based; conditions: in vivo
[25] = Cmax in Sprague-Dawley rat at 20 mg/kg, po by LC-MS/MS analysis; format: ADME, organism-based; conditions: in vivo
[26] = test system: OVCAR-3; experiment: Antitumor activity against human OVCAR-3 cells xenografted in nude BALB/c mouse model assessed as tumor growth inhibition at 80 mg/kg, po administered once daily for 21 days; format: functional, organism-based; conditions: time 21.0 day
[27] = test system: OVCAR-3; experiment: Induction of cell cycle arrest in human OVCAR-3 cells assessed as accumulation of cells at G1 phase at 1 uM incubated for 24 hrs by flow cytometry analysis (reference value: 67.73%); format: functional
[28] = test system: OVCAR-3; experiment: Antitumor activity against human OVCAR-3 cells xenografted in nude BALB/c mouse model assessed as tumor growth inhibition administered as po once daily for 21 days; format: functional, organism-based; conditions: dose 40-80 mg/kg, time 21.0 day
[29] = Acute toxicity in ICR mouse assessed as increase in body weight at 1000 to 2500 mg/kg, po administered once and measured after 1 week; format: organism-based; conditions: in vivo, 168 h, dose 1000-2500 mg/kg, time 1 weeks
[30] = target: CDK6/cyclin D3 (Homo sapiens, UniProt Q00534); experiment: Inhibition of CDK6/Cyclin D3 (unknown origin) pre-incubated for 10 mins followed by ATP/substrate addition and measured after 120 mins by ADP-Glo assay; format: protein-complex assay
Chain of CDK6/cyclin D3 (P30281 whole entry): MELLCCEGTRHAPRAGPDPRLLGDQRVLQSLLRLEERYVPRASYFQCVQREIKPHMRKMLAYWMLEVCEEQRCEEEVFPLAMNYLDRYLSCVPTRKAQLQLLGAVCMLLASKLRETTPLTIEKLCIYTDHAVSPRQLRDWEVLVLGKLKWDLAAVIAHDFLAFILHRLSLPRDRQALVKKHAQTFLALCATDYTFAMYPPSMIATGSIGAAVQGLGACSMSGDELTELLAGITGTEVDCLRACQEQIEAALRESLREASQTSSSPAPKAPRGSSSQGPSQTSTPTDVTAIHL
Chain of CDK6/cyclin D3 (Q00534 whole entry): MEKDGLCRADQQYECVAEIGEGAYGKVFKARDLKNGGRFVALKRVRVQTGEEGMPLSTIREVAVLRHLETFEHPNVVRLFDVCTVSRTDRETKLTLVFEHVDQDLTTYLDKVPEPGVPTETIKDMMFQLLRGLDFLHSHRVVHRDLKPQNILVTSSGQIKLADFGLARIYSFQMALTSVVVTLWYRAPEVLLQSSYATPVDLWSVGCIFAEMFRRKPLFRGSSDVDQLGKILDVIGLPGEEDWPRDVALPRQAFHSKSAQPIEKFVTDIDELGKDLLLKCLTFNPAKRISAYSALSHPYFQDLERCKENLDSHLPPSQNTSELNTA

[31] = test system: OVCAR-3; experiment: Induction of apoptosis in human OVCAR-3 cells assessed as necrotic cells at 1 uM incubated for 24 hrs by Annexin V-FITC/PI staining based flow cytometry analysis (reference value: 0.87%); format: functional
[32] = test system: OVCAR-3; experiment: Antitumor activity against human OVCAR-3 cells xenografted in nude BALB/c mouse assessed as suppression of tumor cell proliferation at 40 to 80 mg/kg, po administered once daily for 21 days by Ki67 staining based analysis; format: functional, organism-based; conditions: dose 40-80 mg/kg, time 21.0 day
[33] = test system: OVCAR-3; experiment: Induction of apoptosis in human OVCAR-3 cells assessed as upregulation of PARP cleavage incubated for 24 hrs by Western blot analysis; format: functional, cell-based
[34] = Acute toxicity in ICR mouse assessed as pathological changes in heart at 1000 to 2500 mg/kg, po administered once for 14 days by H and E staining analysis; format: organism-based; conditions: in vivo, 336 h, dose 1000-2500 mg/kg, time 14 day
[35] = target: Cyclin-dependent kinase 4/cyclin D1 (Homo sapiens, UniProt P11802); experiment: Inhibition of CDK4/Cyclin D1 (unknown origin) pre-incubated for 10 mins followed by ATP/substrate addition and measured after 60 mins by ADP-Glo assay; format: protein-complex assay
Chain of Cyclin-dependent kinase 4/cyclin D1 (P11802 whole entry): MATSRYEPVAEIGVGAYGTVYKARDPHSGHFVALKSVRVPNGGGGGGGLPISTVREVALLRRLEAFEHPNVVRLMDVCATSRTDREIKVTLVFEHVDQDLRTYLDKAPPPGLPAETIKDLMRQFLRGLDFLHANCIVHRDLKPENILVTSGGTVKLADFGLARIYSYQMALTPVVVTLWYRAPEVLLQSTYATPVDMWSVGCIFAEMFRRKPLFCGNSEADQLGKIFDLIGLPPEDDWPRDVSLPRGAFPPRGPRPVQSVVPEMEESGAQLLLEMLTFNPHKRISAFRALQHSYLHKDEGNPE
Chain of Cyclin-dependent kinase 4/cyclin D1 (P24385 whole entry, further chain): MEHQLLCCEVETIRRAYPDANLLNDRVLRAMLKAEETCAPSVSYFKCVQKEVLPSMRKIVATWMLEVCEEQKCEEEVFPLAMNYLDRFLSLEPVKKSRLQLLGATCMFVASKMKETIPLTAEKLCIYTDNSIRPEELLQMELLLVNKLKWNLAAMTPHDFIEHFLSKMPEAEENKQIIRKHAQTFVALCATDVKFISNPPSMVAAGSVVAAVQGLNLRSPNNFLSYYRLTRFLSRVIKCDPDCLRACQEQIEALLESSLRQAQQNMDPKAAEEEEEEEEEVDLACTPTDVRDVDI

[36] = test system: OVCAR-3; experiment: Induction of apoptosis in human OVCAR-3 cells assessed as late apoptotic cells at 1 uM incubated for 24 hrs by Annexin V-FITC/PI staining based flow cytometry analysis (reference value: 2.67%); format: functional
[37] = test system: OVCAR-3; experiment: Upregulation of JUNB gene expression in human OVCAR-3 cells by GSEA; format: functional, cell-based
[38] = test system: OVCAR-3; experiment: Induction of apoptosis in human OVCAR-3 cells assessed as reduction in Bcl2 expression incubated for 24 hrs by Western blot analysis; format: functional, cell-based
[39] = Toxicity in nude BALB/c mouse xenografted with human OVCAR-3 cells assessed as increase in body weight at 40 to 80 mg/kg, po administered once daily for 21 days; format: organism-based; conditions: in vivo, 504 h, dose 40-80 mg/kg, time 21 day

In the case of `CCC(C)n1cc(-c2nc(NC3CCN(S(=O)(=O)C4CC4)CC3)ncc2F)cc(F)c1=O` (centres undefined), the Activity [1] was “Active”, the clearance [2] was 28.3 mL/min/kg and the Activity [3] was “Non-toxic”. For the same molecule, the Activity [4] was “Toxic”, the Activity [5] was 2.09% and the viability at 1 µM [6] was 84.6%. The Activity [7] was “Active”, the bioavailability [8] was 79.5% and the Activity [9] was “Active”. The half-life [10] was 4.54 h, the Activity [11] was “Active” and the Activity [12] was “Non-toxic”. The Activity [13] was “Active”, the Activity [14] was “Non-toxic” and the Activity [15] was “Active”. The pIC50 [16] was 5.79, the CL/F [17] was 29.2 mL/min/kg and the viability at 2 µM [18] was 79.3%. For the same molecule, the Activity [19] was “Non-toxic”, the Activity [20] was 13.2% and the Activity [21] was “Non-toxic”. The Activity [22] was “Non-toxic”, the pIC50 [23] was 6.02 and the Tmax [24] was 0.5 h. For the same molecule, the Cmax [25] was 2130 ng/mL, the Activity [26] was “Active” and the Activity [27] was 94.69%. For the same molecule, the Activity [28] was “Dose-dependent-effect”, the Activity [29] was “Non-toxic” and the pIC50 [30] was 6.77. For the same molecule, the Activity [31] was 5.01%, the Activity [32] was “Active” and the Activity [33] was “Dose-dependent-effect”. The Activity [34] was “Non-toxic”, the pIC50 [35] was 6.99 and the Activity [36] was 7.72%. For the same molecule, the Activity [37] was “Active”, the Activity [38] was “Dose-dependent-effect” and the Activity [39] was “Non-toxic”.
